Experiments:
[1] = molecular target: recombinant ceramidase from Pseudomonas aeruginosa PA01 (Pseudomonas aeruginosa, UniProt Q9I596); assay: Inhibition of recombinant Pseudomonas aeruginosa PA01 ceramidase, quenched fluorescent ceramide analog substrate; assay type: biochemical; conditions: for capability of inhibiting Pseudomonas aeruginosa ceramidase: known human ceramidase inhibitors, various concentrations, assay buffer containing 20 μM of substrate; for ceramidase inhibition ability, comparison in words: comparison among examples 1-9
recombinant ceramidase from Pseudomonas aeruginosa PA01, sequence (Q9I596 25-670): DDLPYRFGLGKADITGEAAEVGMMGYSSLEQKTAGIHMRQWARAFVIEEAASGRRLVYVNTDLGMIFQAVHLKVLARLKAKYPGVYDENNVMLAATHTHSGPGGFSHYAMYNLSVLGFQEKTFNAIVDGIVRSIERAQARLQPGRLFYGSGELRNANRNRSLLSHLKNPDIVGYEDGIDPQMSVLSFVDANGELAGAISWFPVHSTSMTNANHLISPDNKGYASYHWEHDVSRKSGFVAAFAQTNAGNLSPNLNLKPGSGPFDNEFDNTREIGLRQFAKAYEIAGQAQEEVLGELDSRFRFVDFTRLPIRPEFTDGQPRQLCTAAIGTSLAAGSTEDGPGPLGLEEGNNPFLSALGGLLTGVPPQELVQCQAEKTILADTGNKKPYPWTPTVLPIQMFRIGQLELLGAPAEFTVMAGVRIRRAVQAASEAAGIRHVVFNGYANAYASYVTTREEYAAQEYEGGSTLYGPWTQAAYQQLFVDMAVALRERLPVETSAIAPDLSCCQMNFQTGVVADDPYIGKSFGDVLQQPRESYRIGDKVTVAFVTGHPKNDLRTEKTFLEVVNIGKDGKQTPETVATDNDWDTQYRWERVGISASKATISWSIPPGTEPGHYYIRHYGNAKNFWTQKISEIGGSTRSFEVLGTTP
Protocol: The effect of various active compounds on the enzymatic activity of recombinant ceramidase from Pseudomonas aeruginosa PA01 was tested.
The assays were performed at 25° C., with magnetic stirring, using Photo Technology International fluorimeter equipped with a LPS 220 Lamp Power Supply, a 810 Photomultiplier Detector System, a MD 5020 Motor Driver, and a Dell Dimensions M166a computer with FELIX® software. Excitation was done at 346 nm (±2 nm) and the emission was measured at 378 nm (±2 nm).The assay buffer consisted of 50 mM Tris/HCl, 4 mM CaCl2, 0.1% w/v Triton X-100, pH 8.5.
The active compounds were dissolved in DMF (dimethylformamide) to a concentration of 4 mM. Of these solutions, 250 μliter was added to 50 milliliter assay buffer under vortex, yielding 20 μM lipid solutions.
To 1 mL of the lipid solution in a cuvet, 5 μL of quenched fluorescent ceramide analog as a substrate was added (end concentration 2 μM) and the system was allowed to equilibrate for 5 minutes. Then 5 μL of recombinant ceramidase was added (end concentration 4.3 nM). The reaction was allowed to proceed for 20 minutes. The slope at 378 nm was used to determine the reaction rate.
Control experiments were done in the absence of sphingolipids, with corresponding amounts of DMF (0.5% v/v for the 20 μM samples). The reaction rate of the controls was set at 100%. The percentages in the table are given as % of inhibition (control value—reaction rate of the sample).
The potential of several known human ceramidase inhibiting compounds of inhibiting Pseudomonas aeruginosa PA01 ceramidase was tested at various concentrations, in the assay buffer containing 20 μM of substrate.
The potential of several ceramide and sphingoid bases of inhibiting Pseudomonas aeruginosa PA01 ceramidase was tested at a pH of 8.5, using respectively, 2 μM and 20 μM of ceramidase substrate, 1.6 mM Triton X-100 and 4 mM of CaCl2.

[2] = tested on: ceramidase originating from guinea pig epidermis; conditions: in vitro; cited from earlier work
[3] = molecular target: T1, ceramidase originating from mitochondria of rat brain (Rattus norvegicus, UniProt Q91XT9); conditions: cited from earlier work
T1 construct: host or cells: rat brain mitochondria
T1 sequence (Q91XT9 whole entry): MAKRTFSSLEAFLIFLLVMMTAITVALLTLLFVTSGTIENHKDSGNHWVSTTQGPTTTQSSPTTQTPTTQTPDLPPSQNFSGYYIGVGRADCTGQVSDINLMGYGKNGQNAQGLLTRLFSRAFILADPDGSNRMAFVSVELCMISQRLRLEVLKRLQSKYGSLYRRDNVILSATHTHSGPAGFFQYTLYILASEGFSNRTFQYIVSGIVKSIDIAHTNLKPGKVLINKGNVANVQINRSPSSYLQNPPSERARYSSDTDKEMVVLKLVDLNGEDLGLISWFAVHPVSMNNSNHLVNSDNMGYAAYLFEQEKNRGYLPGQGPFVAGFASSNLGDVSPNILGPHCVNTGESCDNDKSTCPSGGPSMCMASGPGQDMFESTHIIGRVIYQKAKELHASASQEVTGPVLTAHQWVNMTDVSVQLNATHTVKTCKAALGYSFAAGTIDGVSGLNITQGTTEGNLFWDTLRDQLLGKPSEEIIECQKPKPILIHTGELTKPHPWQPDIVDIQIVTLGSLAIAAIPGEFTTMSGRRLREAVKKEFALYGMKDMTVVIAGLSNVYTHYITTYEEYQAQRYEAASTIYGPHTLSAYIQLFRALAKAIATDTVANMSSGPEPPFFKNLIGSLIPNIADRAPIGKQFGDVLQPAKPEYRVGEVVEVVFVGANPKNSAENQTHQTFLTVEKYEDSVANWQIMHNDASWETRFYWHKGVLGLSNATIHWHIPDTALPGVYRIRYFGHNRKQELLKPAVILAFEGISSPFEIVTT

[4] = molecular target: T2, human alkaline ceramidase (aPHC) (Homo sapiens, UniProt Q9NUN7); conditions: in vitro and in cells; cited from earlier work
T2 construct: host or cells: yeast mutant strain (as cited)
T2 sequence (Q9NUN7 1-267): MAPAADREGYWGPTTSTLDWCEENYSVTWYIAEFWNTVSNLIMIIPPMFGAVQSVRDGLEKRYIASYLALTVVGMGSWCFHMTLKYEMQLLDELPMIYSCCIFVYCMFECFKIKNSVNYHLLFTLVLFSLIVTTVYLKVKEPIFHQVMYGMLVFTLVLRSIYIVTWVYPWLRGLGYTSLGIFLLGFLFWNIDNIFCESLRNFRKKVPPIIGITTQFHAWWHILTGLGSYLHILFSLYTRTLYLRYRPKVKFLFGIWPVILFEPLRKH

[5] = 20 μM active compound, pH 8.5, 25° C., 4 mM CaCl2, Triton X-100, control rate = 100%

## CCCCCCCCCCCCCCCCC(O)C(=O)N[C@@H](CO)[C@H](O)[C@H](O)CCCCCCCCCCCCCC (stereo partly drawn) [Ceramide VI]
[1]; [5]
  % of inhibition: 11%

## C[C@@H](N)[C@@H](O)c1ccccc1 [D(+)-norephenidrin, reference compound]
[1]
  capability of inhibiting Pseudomonas aeruginosa ceramidase: None of these compounds was found capable of inhibiting

## CCCCCCCCCCCCCC(=O)N[C@H](C)[C@@H](O)c1ccccc1 [D-erytro-MAPP, (1S,2R)-D-erythro-2-(N-myristoylamino)-1-phenyl-1-propanol, reference compound]
[1]
  capability of inhibiting Pseudomonas aeruginosa ceramidase: None of these compounds was found capable of inhibiting

## CCCCCCCCCCCCCCC[C@H](O)[C@H](N)CO [D/L sphinganine]
[1]; [5]
  % of inhibition: 83%

## CCCCCCCCCCCCC/C=C/[C@@H](O)[C@@H](N)CO [D—erythro—sphingosine]
[1]; [5]
  % of inhibition: 97%
[1]
  ceramidase inhibition ability, comparison in words: highest ceramidase inhibition ability

## C[C@H](N)[C@H](O)c1ccccc1 [L(−)-norephenidrin, reference compound]
[1]
  capability of inhibiting Pseudomonas aeruginosa ceramidase: None of these compounds was found capable of inhibiting

## CCCCCCCCCCCCCC(=O)N[C@@H](C)[C@H](O)c1ccccc1 [L-erythro-MAPP, reference compound]
[1]
  capability of inhibiting Pseudomonas aeruginosa ceramidase: None of these compounds was found capable of inhibiting

## CCCCCCCCCCCCC/C=C/[C@H](O)[C@H](N)CO [L—erythro—sphingosine]
[1]; [5]
  % of inhibition: 20%

## CCCCCCCCCCCCCC[C@@H](O)[C@@H](O)[C@H](CO)NC(C)=O [MAPS, N-monoacetyl phytosphingosine]
[1]; [5]
  % of inhibition: 35%

## CCCCCCCC/C=C\CCCCCCCC(=O)NCCO [N-oleoylethanolamine, reference compound]
[1]
  capability of inhibiting Pseudomonas aeruginosa ceramidase: None of these compounds was found capable of inhibiting

## CCCCCCCCCCCCCC[C@@H](O)[C@@H](O)[C@H](CO)NC(C)=O [N—acetyl—phytosphingosine]
[1]; [5]
  % of inhibition: 9%

## CCCCCCCCCCCCCC[C@@H](O)[C@@H](O)[C@@H](N)CO.Cl [Phytosphingosine.HCl]
[1]; 2 μM active compound, pH 8.5, 25° C., 4 mM CaCl2, Triton X-100, control rate = 100%
  % of inhibition: 15%
[1]; [5]
  % of inhibition: 67%
[1]
  ceramidase inhibition ability, comparison in words: better ceramidase inhibiting effect than phytosphingosine

## CCCCCCCCCCCCCC[C@@H](O)[C@@H](O)[C@@H](N)CO [Phytosphingosine]
[1]; pH 8.5, 2 μM active compound, pH 8.5, 25° C., 4 mM CaCl2, Triton X-100, control rate = 100%
  inhibition at 2 µM: 7.5%
[1]; pH 8.5, read-out: % of inhibition, 20 μM active compound, pH 8.5, 25° C., 4 mM CaCl2, Triton X-100, control rate = 100%
  inhibition at 20 µM: 60%

## CCCCCCCCCCCCCCC(OC(C)=O)C(OC(C)=O)C(COC(C)=O)NC(C)=O (stereo not drawn) [TAPS, tetraacetyl-phytosphingosine]
[1]; [5]
  % of inhibition: 22%

## CCCCCCCCCCCCC/C=C/[C@@H](O)[C@@H](N)CO [sphingosine]
[2]
  inhibition of ceramidase: inhibiting ceramidase
[3]
  inhibition of ceramidase: capable of inhibiting ceramidase
[4]
  inhibition of human alkaline ceramidase: inhibited by sphingosine

Reference: patent US20030064936A1 (priority 2001, published 2003)
